Values of other authors in patent US6518456B1, “Process for the production of 1-(aminomethyl)-cyclohexyl-acetic acid in pure form” (Procos S.p.A., priority 2001, dated 2003).

Conditions: extremely low toxicity; species and route not given

In the case of `NCC1(CC(=O)O)CCCCC1` [Gabapentin, 1-(aminomethyl)cyclohexyl-acetic acid], the LD50 is listed as greater than 8000 mg/kg.
